Measured values reported in publication PMC4968608 (Cancer Science, 2016).
Marks after values point to notes of the source that are not given here. Blank lines part the entries; values can stand above or below the molecule they belong to.

Columns and labels:
[1] = tested on: Japanese patients with advanced solid tumors; assay: Dose-limiting toxicity and MTD determination, part 1; assay type: in vivo, human; conditions: cycle 1; for DLT: stage IV, person
[2] = tested on: Japanese patients with advanced solid tumors; assay: Treatment-related adverse events, part 1; assay type: in vivo, human; conditions: for Any AE (treatment-related), All grades / Any AE (treatment-related), Grade 3/4 / Blood creatinine increased (treatment-related AE), All grades / Blood creatinine increased (treatment-related AE), Grade 3/4 / Diarrhea (treatment-related AE), All grades / Diarrhea (treatment-related AE), Grade 3/4 / Fatigue (treatment-related AE), All grades / Fatigue (treatment-related AE), Grade 3/4 / Lymphocytes decreased (treatment-related AE), All grades / Lymphocytes decreased (treatment-related AE), Grade 3/4 / Neutropenia (treatment-related), all grades / Neutropenia (treatment-related), grade 3/4 / Neutrophils decreased (treatment-related AE), All grades / Neutrophils decreased (treatment-related AE), Grade 3/4 / Platelets decreased (treatment-related AE), All grades / Platelets decreased (treatment-related AE), Grade 3/4 / WBCs decreased (treatment-related AE), All grades / WBCs decreased (treatment-related AE), Grade 3/4: part 1, n = 6
[3] = Plasma palbociclib pharmacokinetics, part 1; assay type: in vivo, human; conditions: for AUC(0-t): geometric mean (geometric %CV); for half-life: t½, arithmetic mean ± SD
[4] = Plasma palbociclib concentrations with letrozole, part 2; assay type: in vivo, human; conditions: palbociclib 125 mg + letrozole 2.5 mg once daily, multiple doses, part 2, day 15 of cycles 1 and 2
[5] = tested on: advanced solid tumors; assay: Antitumor activity; assay type: in vivo, human
[6] = tested on: estrogen receptor‐positive (ER+) luminal breast cancer cell lines; conditions: cited from earlier work
[7] = Trough plasma letrozole concentrations, part 2; assay type: in vivo, human
[8] = 100 mg, part 1, patient: breast cancer (first listed)

Structure (SMILES): CC(=O)c1c(C)c2cnc(Nc3ccc(N4CCNCC4)cn3)nc2n(C2CCCC2)c1=O [Palbociclib]
- Patients with dose-limiting toxicity per dose level ([1]; 100 mg and 125 mg once daily, part 1, n = 6 each): one patient per dose level
- DLT ([1]; 100 mg once daily, patient: colon cancer): None
- DLT ([1]; 100 mg once daily, patient: rectal cancer): None
- DLT ([1]; 125 mg once daily, patient: esophageal cancer): None
- DLT ([1]; 125 mg once daily, patient: fibroma): None
- DLT ([1]; 125 mg once daily, patient: rectal cancer): None
- Any AE (treatment-related), All grades ([2]; 100 mg once daily): 6 (100) n (%)
- Any AE (treatment-related), Grade 3/4 ([2]; 100 mg once daily): 4 (67) n (%)
- Blood creatinine increased (treatment-related AE), All grades ([2]; 100 mg once daily): 2 (33) n (%)
- Blood creatinine increased (treatment-related AE), Grade 3/4 ([2]; 100 mg once daily): 0 (0) n (%)
- Diarrhea (treatment-related AE), All grades ([2]; 100 mg once daily): 0 (0) n (%)
- Diarrhea (treatment-related AE), Grade 3/4 ([2]; 100 mg once daily): 0 (0) n (%)
- Fatigue (treatment-related AE), All grades ([2]; 100 mg once daily): 0 (0) n (%)
- Fatigue (treatment-related AE), Grade 3/4 ([2]; 100 mg once daily): 0 (0) n (%)
- Lymphocytes decreased (treatment-related AE), All grades ([2]; 100 mg once daily): 1 (17) n (%)
- Lymphocytes decreased (treatment-related AE), Grade 3/4 ([2]; 100 mg once daily): 1 (17) n (%)
- Neutropenia (treatment-related), all grades ([2]; 100 mg once daily): 83%
- Neutropenia (treatment-related), grade 3/4 ([2]; 100 mg once daily): 67%
- Neutrophils decreased (treatment-related AE), All grades ([2]; 100 mg once daily): 5 (83) n (%)
- Neutrophils decreased (treatment-related AE), Grade 3/4 ([2]; 100 mg once daily): 4 (67) n (%)
- Platelets decreased (treatment-related AE), All grades ([2]; 100 mg once daily): 1 (17) n (%)
- Platelets decreased (treatment-related AE), Grade 3/4 ([2]; 100 mg once daily): 0 (0) n (%)
- WBCs decreased (treatment-related AE), All grades ([2]; 100 mg once daily): 4 (67) n (%)
- WBCs decreased (treatment-related AE), Grade 3/4 ([2]; 100 mg once daily): 2 (33) n (%)
- Any AE (treatment-related), All grades ([2]; 125 mg once daily): 5 (83) n (%)
- Any AE (treatment-related), Grade 3/4 ([2]; 125 mg once daily): 4 (67) n (%)
- Blood creatinine increased (treatment-related AE), All grades ([2]; 125 mg once daily): 0 (0) n (%)
- Blood creatinine increased (treatment-related AE), Grade 3/4 ([2]; 125 mg once daily): 0 (0) n (%)
- Diarrhea (treatment-related AE), All grades ([2]; 125 mg once daily): 2 (33) n (%)
- Diarrhea (treatment-related AE), Grade 3/4 ([2]; 125 mg once daily): 0 (0) n (%)
- Fatigue (treatment-related AE), All grades ([2]; 125 mg once daily): 2 (33) n (%)
- Fatigue (treatment-related AE), Grade 3/4 ([2]; 125 mg once daily): 0 (0) n (%)
- Lymphocytes decreased (treatment-related AE), All grades ([2]; 125 mg once daily): 3 (50) n (%)
- Lymphocytes decreased (treatment-related AE), Grade 3/4 ([2]; 125 mg once daily): 2 (33) n (%)
- Neutropenia (treatment-related), all grades ([2]; 125 mg once daily): 67%
- Neutropenia (treatment-related), grade 3/4 ([2]; 125 mg once daily): 33%
- Neutrophils decreased (treatment-related AE), All grades ([2]; 125 mg once daily): 4 (67) n (%)
- Neutrophils decreased (treatment-related AE), Grade 3/4 ([2]; 125 mg once daily): 2 (33) n (%)
- Platelets decreased (treatment-related AE), All grades ([2]; 125 mg once daily): 2 (33) n (%)
- Platelets decreased (treatment-related AE), Grade 3/4 ([2]; 125 mg once daily): 1 (17) n (%)
- WBCs decreased (treatment-related AE), All grades ([2]; 125 mg once daily): 5 (83) n (%)
- WBCs decreased (treatment-related AE), Grade 3/4 ([2]; 125 mg once daily): 2 (33) n (%)
- Grade ≥3 treatment-related non-hematologic AEs ([2]; all cohorts (100 mg, 125 mg, 125 mg + letrozole)): No grade ≥3 treatment‐related non‐hematologic AEs were observed
- Deaths ([2]; whole study, 18 patients): No deaths
- Dose proportionality of exposure ([3]; 125 mg vs 100 mg, part 1): higher than dose‐proportional exposure
- Tmax ([3]; 125 mg, single dose, n = 6, median (range)): 4.0 (3.9–8.0) h
- AUC(0-inf) ([3]; human, plasma, oral, 100 mg): 1040 ng·h/mL
- Cmax ([3]; human, plasma, oral, 100 mg): 41.4 ng/mL
- Tmax ([3]; human, plasma, oral, 100 mg): 5 h
- AUC(0-t) ([3]; human, plasma, oral, 100 mg, AUClast, single dose, n = 6): 972 ng·h/mL
- AUC(0-t) ([3]; human, plasma, oral, 100 mg, AUCτ (= AUC0–24), 100 mg once daily, multiple doses (day 8 of cycle 1), n = 6): 1280 ng·h/mL
- AUC(0-t) ([3]; human, plasma, oral, 100 mg, AUCτ (= AUC0–24), single dose, n = 6): 548 ng·h/mL
- half-life ([3]; human, plasma, oral, 100 mg, 100 mg once daily, multiple doses (day 8 of cycle 1), n = 6): 1430 ± 408 min
- half-life ([3]; human, plasma, oral, 100 mg, single dose, n = 6): 1540 ± 318 min
- AUC(0-inf) ([3]; human, plasma, oral, 125 mg): 2480 ng·h/mL
- Tmax ([3]; human, plasma, oral, 125 mg): 4 to 5 h
- concentration at 4 h ([3]; human, plasma, oral, 125 mg): 172 ng/mL
- AUC(0-t) ([3]; human, plasma, oral, 125 mg, AUClast, single dose, n = 6): 2400 ng·h/mL
- AUC(0-t) ([3]; human, plasma, oral, 125 mg, AUCτ (= AUC0–24), 125 mg once daily, multiple doses (day 8 of cycle 1), n = 6): 2840 ng·h/mL
- AUC(0-t) ([3]; human, plasma, oral, 125 mg, AUCτ (= AUC0–24), single dose, n = 6): 1320 ng·h/mL
- half-life ([3]; human, plasma, oral, 125 mg, 125 mg once daily, multiple doses (day 8 of cycle 1), n = 6): 1390 ± 462 min
- half-life ([3]; human, plasma, oral, 125 mg, single dose, n = 6): 1430 ± 162 min
- Plasma palbociclib concentration, Predose [Ctrough], geometric mean ([3]; palbociclib 125 mg alone, day 8 of part 1): 72.8 ng/mL
- Plasma palbociclib concentration, Predose [Ctrough], geometric mean [4]: 88.5 ng/mL
- Patients with stable disease ([5]; 100 mg, part 1, n = 6): three of six patients
- Best response [5, 8]: Indeterminate
- Progression‐free survival [5, 8]: 29 days
- Progression‐free survival ([5]; 100 mg, part 1, patient: breast cancer (second listed)): 75 days
- Progression‐free survival ([5]; 100 mg, part 1, patient: colon cancer): 29 days
- Progression‐free survival ([5]; 100 mg, part 1, patient: medullary thyroid cancer): 57 days
- Progression‐free survival ([5]; 100 mg, part 1, patient: ovarian cancer): 121 days
- Progression‐free survival ([5]; 100 mg, part 1, patient: rectal cancer): 223 days
- Patients with stable disease ([5]; 125 mg, part 1, n = 6): one of six patients
- Progression‐free survival ([5]; 125 mg, part 1, patient: acinar cell carcinoma of pancreas): 29 days
- Progression‐free survival ([5]; 125 mg, part 1, patient: breast cancer): 57 days
- Progression‐free survival ([5]; 125 mg, part 1, patient: esophageal carcinoma): 280 days
- Progression‐free survival ([5]; 125 mg, part 1, patient: fibroma): 28 days
- Progression‐free survival ([5]; 125 mg, part 1, patient: inflammatory myofibroblastic tumor): 28 days
- Progression‐free survival ([5]; 125 mg, part 1, patient: rectal cancer): 32 days
- DCR (objective response or stable disease ≥24 weeks) ([5]; 100 or 125 mg, part 1): 17%
- Objective responses (CR or PR) ([5]; 100 or 125 mg, part 1): not reported
- Patients with extended stable disease (≥24 weeks) ([5]; part 1, 100- or 125-mg dose (rectal and esophageal cancer)): two patients
- Patients with stable disease ([5]; part 1 overall (100 and 125 mg, n = 12)): Four patients had stable disease
- Antitumor activity when combined with tamoxifen [6]: synergistic antitumor activity
- Retinoblastoma protein hyperphosphorylation [6]: inhibition of retinoblastoma protein hyperphosphorylation
- Tumor cell growth [6]: arrest tumor cell growth

- Predose plasma letrozole concentration, geometric mean Ctrough ([7]; letrozole 2.5 mg alone, part 2, day 1 of cycles 2 and 3): 146 ^† ng/mL
- Predose plasma letrozole concentration, geometric mean Ctrough ([7]; palbociclib 125 mg + letrozole 2.5 mg, part 2, day 15 of cycles 1 and 2): 131 ^‡ ng/mL
Structure (SMILES): N#Cc1ccc(C(c2ccc(C#N)cc2)n2cncn2)cc1 [letrozole]
